Article PMC8968665, “Verteporfin is a substrate-selective γ-secretase inhibitor that binds the amyloid precursor protein transmembrane domain” (The Journal of Biological Chemistry, 2022)
Where “and” joins values, the source holds several entries; their conditions need not be identical. Identical values can stand only once. Entries after “also recorded” stand apart in the source; their conditions may differ. Like-named read-outs stand apart in the source and are kept apart here.

How the values were obtained:
[1] = 1D 1H NMR titration of empty LMPG micelles by verteporfin; conditions: empty 2.5% LMPG micelles, acyl chain methylene peak shifts, n = 1; read-out: KD, one verteporfin binding to one detergent micelle model
Text: (§1) For this equation, Y is the total binding, Bmax is the maximum binding in the same units as Y, X is the added ligand in molar units, KD is the equilibrium dissociation constant in the same units as X. 1D NMR-binding curves were generated by directly inputting 1D chemical shift perturbations directly into the proper version of Equation 2. Peak height data, such as that quantified in Figures 4 and S4, were first generated using the peak-picking function in NMRFAM Sparky, and peak heights as a function of ligand concentration were used to generate a KD by addition into Equation 2.

[2] = target: T1, C99 domain of the human amyloid precursor protein (Homo sapiens, UniProt P05067); experiment: TROSY NMR titration of C99 by verteporfin, fit to 1:1 binding model
T1 construct: the transmembrane 99 residue C-terminal (C99) domain; His tag (either the C-terminal hexa-His that is kept, or the N-terminal His of C99-NT2 removed by thrombin); made in house; host or cells: E. coli BL21DE3
Procedure: The preparation of NMR screening samples consisted of final concentrations of 50 μM C99, 2.5% w/v LMPG, […] buffer imidazole, 5% v/v D2O, 0.5 mM EDTA, pH 6.5. To ensure that these final conditions were maintained, the individual components of the screening samples were added from stocks in a specific order. For example, to make 10 ml of screening sample in imidazole NMR buffer, the following was added: (1) 10 by 250 μl frozen stocks of 200 μM protein were thawed on ice and transferred to a 15 ml conical vial; (2) 1.25 ml of 20% w/v LMPG stock (dissolved in H2O) was added to the conical vial, which was mixed by vortexing; (3) 1 ml of 10× concentrated imidazole NMR buffer was added to the conical vial and mixed by vortexing; (4) the sample was then diluted to 10 ml by adding 4.75 ml of ddH2O and 0.5 ml of D2O and allowed to reach equilibrium for at least 60 min. This final pool contained 50 μM C99, 25 mM imidazole, 100 mM NaCl, 2.5% LMPG, 5% v/v D2O, 0.5 mM EDTA, pH 6.5. At that point, the samples (199 μl for each well) were distributed into 96-well plates containing predispensed compounds, thoroughly mixed by pipette, and the complete 200 μl mixtures were transferred to 3 mm x 4 inch NMR tubes. At this point, each 3 mm NMR tube contained a 200 μl sample of 50 μM C99, 50 μM Compound, 25 mM imidazole, 100 mM NaCl, 2.5% w/v LMPG, 5% v/v D2O, 0.5% v/v DMSO, 0.5 mM EDTA, pH 6.5. Loaded NMR tubes were cleaned with 100% Ethanol on a kimwipe, securely capped, and transferred to an NMR tube rack compatible with a Bruker SampleJet system.
(§2) A Bruker Avance III 600 MHz NMR spectrometer equipped with a cryoprobe (CPTCI) and automated sample changer (SampleJet) was used to collect NMR spectra. Sample details are described above. For high-throughput screening data collection, the ^15N-^1H BEST-TROSY (b_trosy3gpph.2) experiment with 64 scans for each of 96 increments and a relaxation delay of 200 ms was run at 318 K for a total data acquisition time of 35 min per sample. To achieve enhanced signal-to-noise ratio, follow-up titrations and control experiments were conducted using the BEST-TROSY pulse program with 200 scans per 96 increments at 318 K, for a total data acquisition time of 110 min per sample. Data were processed using Bruker Topspin 3.6 using a Gaussian window function with a line broadening of -10 and a Gaussian max of 0.1 in both dimensions. NMR data were then further processed and analyzed using NMR-FAM SPARKY, plotted using GraphPad Prism 9, and prepared for publication figures using Affinity Designer.
2D ^15 N-^1H HSQC NMR data used to calculate dissociations constant (KD) values by first normalizing 2D data using the established formula ([78]) (Equation 1):(1) δ(1H,15N)=√(1/2[δ2H+.14∗δ2N]) Where δ(1H,15N) is the square root of linear chemical shifts in each respective dimension, δH and δN with the Nitrogen normalization factor of 0.14.
After 2D normalization, the data were fit to a hyperbolic binding isotherm using one of the following formulas depending of the data:(2) Y=Bmax∗X/(KD+X)+NS∗X
For this equation, Y is the total binding, Bmax is the maximum binding in the same units as Y, X is the added ligand in molar units, KD is the equilibrium dissociation constant in the same units as X, and NS is a linear term to account for either vehicle or nonspecific verteporfin effects.(3) Y=Bmax∗X/(KD+X)
as §1

C99 T761A = test system: T2, C99 T761A; experiment: TROSY NMR titration of C99 T761A mutant by verteporfin; type: binding, human; conditions: LMPG micelles, up to 300 µM verteporfin, n=1
T2 construct: the transmembrane 99 residue C-terminal (C99) domain; hexa-His; made in house
Procedure: as §2

C99 = test system: T3, C99; experiment: 2D 1H,1H-NOESY of 1:1 verteporfin:C99 mixture; type: binding, human; conditions: 300 μM C99 and 300 μM verteporfin, 2.5% d27-LMPG
T3 construct: the transmembrane 99 residue C-terminal (C99) domain; His tag (either the C-terminal hexa-His that is kept, or the N-terminal His of C99-NT2 removed by thrombin); made in house; host or cells: E. coli BL21DE3
Procedure: A sample was prepared containing 300 μM C99 and 300 μM Verteporfin in 2.5% d^27-LMPG (deuterated alkyl chains), 50 mM d^4-Imidazole (deuterated imidazole), 100 mM NaCl, 0.5 mM EDTA, 1 mM DSS, pH 6.5 in 85% D2O. The ^1H-^1H NOESY experiment was recorded on the 800 MHz spectrometer with a mixing time of 120 ms, relaxation delay of 2 s, 4k × 1k data acquisition matrix, using the standard Bruker pulse program (noesyphpr).

T1 sequence (P05067 672-770 limits assumed): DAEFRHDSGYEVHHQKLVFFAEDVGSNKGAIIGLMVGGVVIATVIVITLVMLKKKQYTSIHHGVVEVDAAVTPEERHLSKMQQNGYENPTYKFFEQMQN

Substance verteporfin has a Kd [1] of 53 ± 21 µM, a Kd ([2]; C99 in model membranes, read-out: KD of 1:1 complex) of roughly 17 µM and a Kd ([2]; D6PC/DMPC (q = 0.33) bicelles, n = 1, error of the fit, Fig. 3C, read-out: KD from C99 peak E766) of 17 ± 4 µM. The Kd ([2]; D6PC/DMPC (q = 0.33) bicelles, n = 1, error of the fit, Fig. 3C, read-out: KD from C99 peak T761) was 16 ± 4 µM, the Kd ([2]; LMPG micelles, 50 μM C99, pH 6.5, 318 K, 1:1 binding model, read-out: average dissociation constant (KD) across multiple residues in and around the TM domain) was 17 ± 11 µM and the Kd ([2]; depending on the membrane mimetic used (LMPG, DDMB micelles, DHPC-DMPC bicelles), read-out: KD range across membrane mimetics) was 15 to 47 µM and 10 to 50 µM. The Kd ([2]; nonionic DDMB micelles, n=1, error of the fit, Fig. S2C, read-out: KD from fitting of two different peaks) was 43 µM and 47 µM, the Kd ([2]; untagged C99 in DDMB micelles, Fig. S2 title, read-out: KD) was 45 ± 22 µM and the “binding to C99 T761A” value (C99 T761A) was “complete lack of binding; also recorded: binding was disrupted”. For the same substance, the “direct intermolecular contact with C99 (NOESY cross-peaks)” value (C99) was “confirms direct binding”.
